The test system of one assay is MCF7. Kind of assay: Antiproliferative activity against human MCF7 cells after 48 hrs by MTT assay. It counts as functional, cell-based. The note with it: MCF7, 48 h.
The test system of another assay is PC-3. Kind of assay: Antiproliferative activity against human PC3 cells after 48 hrs by MTT assay. Format: functional, cell-based. Conditions: PC-3, 48 h.
The next assay deals with Caco-2. Kind of assay: Antiproliferative activity against human Caco2 cells after 48 hrs by MTT assay. It counts as functional, cell-based. Conditions: Caco-2, 48 h.
Another assay concerns HepG2. Kind of assay: Antiproliferative activity against human HepG2 cells after 48 hrs by MTT assay. Format: functional, cell-based. The note with it: HepG2, 48 h.
For a further assay, the system named is L02. Kind of assay: Antiproliferative activity against human L02 cells after 48 hrs by MTT assay. Format: cell-based. Conditions: L02, 48 h.

Take `CCn1c(C(=O)NCCN(C)C)ccc1C(CC)(CC)c1ccc(OCCC(O)(CC)CC)c(C)c1`: the IC50 with MCF7 is 0.43 µM; with PC-3 it was 0.87 µM; in the assay on Caco-2, 1.14 µM; in the assay with HepG2, 0.24 µM; with L02, 0.99 µM.

As for `CCn1c(C(=O)NCCN)ccc1C(CC)(CC)c1ccc(OCCC(O)(CC)CC)c(C)c1`, the IC50 in the assay with MCF7 amounted to 0.67 µM; with PC-3, 2.42 µM; in the assay with Caco-2, 1.74 µM; in the assay with HepG2, 1.59 µM; with L02, 2.94 µM.

As to `CCn1c(C(=O)Nc2ccc(OC(F)(F)F)cc2)ccc1C(CC)(CC)c1ccc(OCCC(O)(CC)CC)c(C)c1`, the half-maximal inhibitory concentration (IC50) with MCF7, with PC-3, with Caco-2, in the assay with HepG2 and in the assay on L02 was more than 50 µM throughout.

`CCC(C)C(CO)NC(=O)c1ccc(C(CC)(CC)c2ccc(OCCC(O)(CC)CC)c(C)c2)n1CC` (stereo not given): the IC50 in the assay on MCF7 was 29.1 µM; in the assay on PC-3, 28.4 µM; in the assay with Caco-2 it was more than 50 µM; with HepG2, more than 50 µM; in the assay with L02, more than 50 µM.

`CCOC(=O)CN(C)C(=O)c1ccc(C(CC)(CC)c2ccc(OCCC(O)(CC)CC)c(C)c2)n1CC`: the IC50 with MCF7 turned out to be 3.21 µM; in the assay on PC-3 it was 7.14 µM; with Caco-2, 30.3 µM; in the assay on HepG2 it was 25.3 µM; in the assay with L02 it was 1.99 µM.

In the case of `CCn1c(C(=O)N(C)CCO)ccc1C(CC)(CC)c1ccc(OCCC(O)(CC)CC)c(C)c1`, the IC50 came to 2.87 µM in the assay on MCF7; 3.09 µM in the assay with PC-3; 0.074 µM in the assay on Caco-2; 0.51 µM in the assay with HepG2; 2.05 µM in the assay on L02.

With `CCn1c(C(=O)NC(C)C(=O)O)ccc1C(CC)(CC)c1ccc(OCCC(O)(CC)CC)c(C)c1` (stereo not given), the IC50 in the assay on MCF7 came to 19.7 µM; in the assay on PC-3 it was 11.7 µM; in the assay on Caco-2, 46.5 µM; with HepG2, 1.74 µM; in the assay on L02, 4.04 µM.

Consider `C#CC(C)OC(=O)c1ccc(C(CC)(CC)c2ccc(OCCC(O)(CC)CC)c(C)c2)n1CC` (stereo not given), for which the IC50 in the assay on MCF7 was more than 50 µM; in the assay on PC-3, 14.8 µM; in the assay on Caco-2, more than 50 µM; in the assay with HepG2 it was more than 50 µM; with L02 it was more than 50 µM.

For `C=CCN(C)C(=O)c1ccc(C(CC)(CC)c2ccc(OCCC(O)(CC)CC)c(C)c2)n1CC`, the IC50 is more than 50 µM with MCF7; 12.8 µM in the assay with PC-3; more than 50 µM in the assay on Caco-2; more than 50 µM in the assay with HepG2; 1.19 µM with L02.

With `CCn1c(C(=O)NC(C)CO)ccc1C(CC)(CC)c1ccc(OCCC(O)(CC)CC)c(C)c1` (stereo not given), the IC50 in the assay on MCF7 is 12.6 µM; in the assay with PC-3 it was 7.87 µM; in the assay with Caco-2 it was more than 50 µM; in the assay with HepG2 it was 43.1 µM; in the assay on L02 it was 4.84 µM.

As for `CCn1c(C(=O)N(CCC#N)CCC#N)ccc1C(CC)(CC)c1ccc(OCCC(O)(CC)CC)c(C)c1`, the IC50 in the assay with MCF7 was more than 50 µM; in the assay on PC-3 it was more than 50 µM; with Caco-2 it was more than 50 µM; with HepG2, 46.3 µM; in the assay on L02 it was 37.8 µM.

Regarding `CCn1c(C(=O)NC(CC(=O)O)C(=O)OC)ccc1C(CC)(CC)c1ccc(OCCC(O)(CC)CC)c(C)c1` (stereo not given), the IC50 was found to be 10.2 µM with MCF7; 11.2 µM in the assay with PC-3; 25.2 µM in the assay with Caco-2; 10.7 µM in the assay with HepG2; 7.59 µM in the assay with L02.

Turning to `CCn1c(C(=O)NCCCN(C)C)ccc1C(CC)(CC)c1ccc(OCCC(O)(CC)CC)c(C)c1`, the IC50 was 3.35 µM in the assay on MCF7; 2.15 µM in the assay with PC-3; 0.49 µM with Caco-2; 0.11 µM in the assay with HepG2; 2.42 µM in the assay with L02.

On to `CCC(C)C(NC(=O)c1ccc(C(CC)(CC)c2ccc(OCCC(O)(CC)CC)c(C)c2)n1CC)C(=O)O` (stereo not given), for which the IC50 with MCF7 stood at 11.3 µM; in the assay on PC-3 it was 13.8 µM; with Caco-2 it was 20 µM; in the assay on HepG2 it was 2.62 µM; in the assay with L02, 9.99 µM.

The values are drawn from ChEMBL document CHEMBL4033800, “Further Developments of the Phenyl-Pyrrolyl Pentane Series of Nonsteroidal Vitamin D Receptor Modulators as Anticancer Agents” (J Med Chem, 2018).
